Measured values from PMC9905117, “Characterization of the metabolism of eupalinolide A and B by carboxylesterase and cytochrome P450 in human liver microsomes” (Frontiers in Pharmacology, 2023).

Test system: Carboxylesterase
Test: Inhibition of EA or EB hydrolysis in HLMs by carboxylesterase inhibitor BNPP
Assay type: biochemical, human
Settings: HLMs 0.5 g/L, no NADPH, 30 min
Description: To determine ideal BNPP concentration for inhibiting carboxylesterase activity in HLMs, an incubation system consisting of 100 mM phosphate buffer solution at pH 7.4, HLMs (0.5 g/L), MgCl2 (5 mM) and BNPP (0.5, 1, 1.5 and 2 mM) was prepared ([Zhuang et al., 2014]; [Wang Y. Q. et al., 2020]; [Zhang et al., 2022d]; [Jin et al., 2022]). The mixture was preincubated at 37°C for 5 min and the metabolic reaction was initiated by addition of EA or EB (at a final concentration of 10 μM). Positive control groups lacked BNPP while negative control groups contained deactivated HLMs. […] The above reaction was terminated by adding 200 µl of ice-cold stop solution at 30 min. Sample preparation and evaluation were as described in 2.2.1. All incubations were performed in triplicate. The percentage of EA or EB hydrolysis inhibition was calculated using the following Eq. 1: Inhibition%=1−∆substrate in the presence of chemical inhibitor/∆substrate in the absence of chemical inhibitor×100% (1)

## O=[N+]([O-])c1ccc(OP(=O)(O)Oc2ccc([N+](=O)[O-])cc2)cc1 [BNPP, bis(4-nitrophenyl) phosphoricacid]
BNPP 0.5 mM, EA 10 μM
  inhibitory percentage of EA hydrolysis: 87.38%
BNPP 2 mM, EB 10 μM
  inhibitory rate of EB hydrolysis: 86.11%
